# Measurements as given in the supplement of paper PMC10307832.
# Compound: CCN(CC)CCNC(=O)c1c(C)[nH]c(/C=C2\C(=O)Nc3ccc(F)cc32)c1C [Sunitinib]
# Test: relative viability (nuclei count vs DMSO), 5 days (fraction); higher = more cells survive
# Procedure, shortened: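 Viability was defined as treated-well nuclei divided by vehicle-well nuclei, with the median taken over replicate plates. Cells from lung cancer lines sat overnight at 37 °C in 1536-well plates, received five √10-spaced library-drug doses by pinning on vehicle-anchored plates, and grew 5 days without medium change before one-step fixation, permeabilisation and Hoechst staining, 4× imaging and MetaXpress nuclear counts. Only plates with control CV under 25% and at least one doubling were kept.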
Cell Line,relative viability (0.02 µM),relative viability (0.06325 µM),relative viability (0.2 µM),relative viability (0.6325 µM),relative viability (2 µM)
201T,0.938,0.999,1.02,0.989,0.987
A549,0.945,1.1,1.23,1.06,0.972
A-427,0.981,–,1.05,1.07,1.06
ABC-1,1.03,1.23,1.06,1.02,1.01
BEN,0.85,0.97,0.988,0.973,–
CAL-12T,0.908,1.03,1.11,1.13,1.03
COR-L23,0.951,1.08,1.15,1.2,1.1
COR-L 105,0.876,1.05,0.952,–,0.889
Calu-6,0.954,1.04,1.09,1.06,1.07
ChaGo-K-1,0.987,1.01,1.04,1.06,1.04
EKVX,0.974,1.01,1.14,1.12,1
EMC-BAC-2,0.935,1.11,1.18,1.01,1.07
EPLC-272H,0.841,1.07,0.939,0.98,0.795
H3255,0.94,0.902,–,1.02,0.988
HARA,0.966,1.16,1.03,0.987,–
HCC-15,0.988,1.11,–,1.04,1
HCC-44,–,1.04,1.04,1.01,1.04
HCC-78,0.984,0.947,0.994,0.899,1
HCC-366,0.963,1.05,1.07,–,0.965
HCC-827,1.01,1.06,1.05,1.05,1.04
HOP-62,0.95,1.07,1.13,1.1,1.06
IA-LM,0.951,0.953,1.05,1.1,1.07
LC-2-ad,0.945,1.01,1.09,1,0.781
LCLC-97TM1,0.968,1.14,1.01,1.02,1.09
LCLC-103H,0.905,1.07,1.12,0.903,1.03
LK-2,0.936,1.02,1.22,0.905,1.01
LOU-NH91,1.01,0.969,1,0.98,0.941

Cell Line,relative viability (0.02 µM),relative viability (0.06325 µM),relative viability (0.2 µM),relative viability (0.6325 µM),relative viability (2 µM)
LU99A,0.84,1.1,1.04,0.938,0.901
LXF-289,0.949,0.986,1.04,1.02,1.01
NCI-H23,0.849,1.15,1.07,1.17,0.938
NCI-H322M,0.866,1.02,1,0.936,0.892
NCI-H358,0.875,0.97,1.1,0.897,0.67
NCI-H441,0.863,–,1.17,1.11,1.12
NCI-H460,–,–,1.05,0.995,1.08
NCI-H520,0.926,1.08,1.07,0.979,0.912
NCI-H522,0.927,1.12,0.996,0.962,0.999
NCI-H596,0.952,1.15,–,0.998,0.913
NCI-H647,0.991,1.14,1.03,0.989,0.956
NCI-H650,0.906,1.1,1.01,1.03,1.08
NCI-H661,0.977,–,1,1.05,1.03
NCI-H727,0.942,1.17,1.23,1.09,0.859
NCI-H838,0.932,1.06,1.03,0.952,0.782
NCI-H1299,0.99,1.07,1.04,1.04,1.08
NCI-H1355,0.962,1.07,1.12,1.02,1.05
NCI-H1395,1.02,1.01,0.925,0.991,0.945
NCI-H1437,1.03,1.03,–,0.996,1.09
NCI-H1563,0.955,1.04,0.969,0.939,0.967
NCI-H1648,0.767,–,1.15,1.13,1.17
NCI-H1650,–,1.05,0.964,0.942,0.903
NCI-H1651,0.938,1.1,–,0.996,1.03
NCI-H1666,1.02,1.07,1.1,1.05,–
NCI-H1703,0.616,0.257,0.315,0.216,0.242
NCI-H1734,0.916,1.11,1.04,1.05,0.981
NCI-H1755,–,–,1.04,1.03,1.05

Cell Line,relative viability (0.02 µM),relative viability (0.06325 µM),relative viability (0.2 µM),relative viability (0.6325 µM),relative viability (2 µM)
NCI-H1792,0.802,1.11,1.18,0.924,1.02
NCI-H1793,–,0.974,–,0.964,0.831
NCI-H1915,0.943,1.05,1.02,1.03,1.07
NCI-H1944,0.914,1.09,1.15,1.05,1.1
NCI-H1975,0.911,–,1.06,0.963,0.855
NCI-H1993,0.963,0.992,1.08,0.915,0.98
NCI-H2009,0.957,1.07,1.07,1.11,–
NCI-H2023,0.874,1.09,1.07,1.03,0.967
NCI-H2085,0.999,1.04,1.01,1.03,1.04
NCI-H2087,1.16,1.25,1.13,1.1,1.11
NCI-H2126,0.946,1.06,1.04,1.04,1.03
NCI-H2170,0.909,0.993,1.05,0.953,0.959
NCI-H2228,1.02,1.21,1.07,0.973,0.962
NCI-H2342,0.96,1.09,1.03,1.01,1.11
NCI-H2347,1.01,1.08,1.1,1.04,1.18
NCI-H2405,1.01,1.06,1.05,1.07,1.01
NCI-H3122,0.986,1.05,0.996,1.01,–
PC-3 [JPC-3],1.12,1.05,0.981,1.02,1.02
PC-14,1.01,1.01,1.13,1.02,0.898
RERF-LC-KJ,0.956,1.06,1.08,0.992,–
SK-LU-1,0.972,1.19,1.1,1.13,0.959
SK-MES-1,0.931,1.03,1.09,1.11,0.988
SW 900,1.01,1.07,0.932,1.04,0.957
SW 1573,0.947,1.17,1.26,1.11,0.905
UMC-11,0.872,1.11,1.01,0.995,0.937
